According to US9895334B2, “Treatment of virally induced lesions” (LEO Laboratories Limited, priority 2007, dated 2018):

Test system: Cottontail Rabbit Papilloma Virus (CRPV) cutaneous warts
Assay: Cottontail Rabbit Papilloma Virus (CRPV) model of cutaneous warts: wart surface area after topical gel
Assay type: in vivo, Hra(NZW)SPF New Zealand White Rabbits
Source text: Efficacy of Ingenol-3-angelate (PEP005) Topical Gel in a Cottontail Rabbit Papilloma Virus (CRPV) model of cutaneous warts in Hra(NZW)SPF New Zealand White Rabbits.
Ch 25. In: Zak O, Sande M A, editors. Handbook of animal models of infection. New York: Academic Press; 1999. p. 1039-47). Concentrations of the inoculant were selected empirically based on published information for the CRPV model in which cutaneous papillomas (warts) were induced in rabbits (Christensen N D. Cottontail rabbit papillomavirus (CRPV) model system to test antiviral and immunotherapeutic strategies. Antiviral chemistry & chemotherapy 2005; 16(6):355-62). The percutaneous route was selected because this route has been successfully used to establish cutaneous papilloma (wart) formation in rabbits following inoculation with CRPV DNA.
Ten female Hra:(NZW)SPF New Zealand White (NZW) female rabbits were randomly assigned to four dose groups, three rabbits per dose group in Groups 1 through 3 and one rabbit in Group 4.
Four days before inoculation (DS-4), the backs of the rabbits were shaved over an area encompassing all eight exposure sites using an electric clipper with an appropriate blade. Following clipping, the skin was chemically depilated with Veet® (distributed by Reckitt Benckiser Inc., Parsippany, N.J., USA). The clipped area (approximately 10 cm×20 cm) extended from the shoulders to the hip joints of each rabbit and was approximately 10 cm wide (extending ventrolaterally from the dorsal midline approximately 5 cm on each side). Any re-growth of hair was carefully clipped, as needed throughout the study.
Three days before inoculation, rabbits were anesthetized with isoflourane/oxygen and the exposure sites on each rabbit were tattooed (Aims Black Pigment #242, AIMS Inc, Piscataway, N.J., USA, lot number F0707A, expiration date 30 Jun. 2008) on either side of each inoculation site. Each exposure site was carefully scarified using a scalpel blade (#60) to create a brush burn-like lesion in order to promote wart growth following inoculation. Rabbits were monitored constantly for signs of regular breathing and comfort while anesthetized and until full recovery from anesthesia. […]
Daily observations for development of the warts began during week 4 and continued until the first day of test article or placebo administration. The length and width of each cutaneous wart was recorded from the day of first observation to the completion of the study.
Dose administration of PEP005 Topical Gel or placebo began on DS 50. […] The treatment area of each dosing site was determined from the most recent length and width measurements of each wart (mm^2). […]

C/C=C(/C)C(=O)O[C@H]1C(C)=C[C@]23C(=O)[C@@H](C=C(CO)[C@@H](O)[C@]12O)[C@H]1[C@@H](C[C@H]3C)C1(C)C [PEP005, ingenol-3-angelate]
Average percentage change in wart area relative to Day 50 (0.1% PEP005, 3 day treatment, Days 51-57): 2.1%
Average percentage change in wart area relative to Day 50 (0.1% PEP005, 3 day treatment, Days 56-64): −4.7%
Average percentage change in wart area relative to Day 50 (0.1% PEP005, 5 day treatment, Days 51-57): 17.5%
Average percentage change in wart area relative to Day 50 (0.1% PEP005, 5 day treatment, Days 56-64): 3.9%
